Like-named read-outs stand apart in the source and are kept apart here.
Assays:
Format in all cases: cell-based
human TAAR1 receptors = target: T1, human TAAR1 receptors (Homo sapiens, UniProt Q96RJ0); test: TAAR1 Agonism Assay: cAMP HTRF assay for Gs coupled receptor TAAR1 (Euroscreen FAST-0987C); settings: CHO-K1 cells expressing human TAAR1, cAMP HTRF
T1 construct: host or cells: CHO-K1
T1 sequence (Q96RJ0 1-339): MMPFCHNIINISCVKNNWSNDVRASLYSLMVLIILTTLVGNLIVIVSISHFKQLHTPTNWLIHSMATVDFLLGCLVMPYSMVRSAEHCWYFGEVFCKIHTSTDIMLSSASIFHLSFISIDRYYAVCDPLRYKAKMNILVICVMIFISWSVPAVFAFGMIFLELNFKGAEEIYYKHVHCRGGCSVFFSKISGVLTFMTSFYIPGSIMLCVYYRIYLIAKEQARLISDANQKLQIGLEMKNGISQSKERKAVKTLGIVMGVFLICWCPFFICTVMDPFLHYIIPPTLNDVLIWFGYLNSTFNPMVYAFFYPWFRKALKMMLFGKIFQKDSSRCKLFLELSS
Procedure: Dose response curves were performed in parallel with the reference compound, tyramine.
For the TAAR1 agonist test (performed in a 384 well plate): 5 μl of cells (about 3,000 cells) were mixed with 5 μl of the test compound diluted in assay buffer and then incubated for about 30 minutes at about room temperature. After addition of the lysis buffer containing cAMP-d2 and anti-cAMP cryptate detection reagents, plates were incubated for about a 1-hour incubation at about room temperature, and fluorescence ratios were measured according to the manufacturer specifications, with the HTRF (Homogeneous Time Resolved Fluorescence) kit (cAMP Gs dynamic kit, Cisbio Bioassays, 62AM4PEJ).
(§1) Compounds were tested at the following nanomolar concentrations, in duplicate: 0.3 nM, 1 nM, 3 nM, 10 nM, 30 nM, 100 nM, 300 nM, 1,000 nM, 3,000 nM, and 10,000 nM.

human 5-HT2A receptor = target: T2, human 5-HT2A receptor (Homo sapiens, UniProt P28223); test: 5HT2A Antagonism Assay (Euroscreen FAST-05051), IP-One HTRF
T2 construct: host or cells: CHO-K1
Procedure: 5HT2A Antagonism Assay Protocol (Euroscreen FAST-05051)
CHO-K1 cells expressing the human 5-HT2A receptor grown to mid-log phase in culture media without antibiotics, were detached with PBS-EDTA, centrifuged, and resuspended in the IP-One Gq kit (Cisbio Bioassays, 62IPAPEC) stimulation buffer.
For antagonist testing in a 384 well plate: 5 μl of cells (20,000 cells) were mixed with 5 μl of a mix of test compound and reference agonist (for a final assay concentration corresponding to its EC80) diluted in stimulation buffer. The plate was incubated for 60 minutes at 37° C. in a humidified atmosphere of 95% air with 5% CO2, then 5 μL of IP1-d2 and anti-IP1 cryptate detection reagents were added to each well, the plates were incubated for about 1 hour at about room temperature. Fluorescence ratios are measured according to the manufacturer's specification (IP-One Gq kit (Cisbio Bioassays, 62IPAPEC).
Dose response curves were performed in parallel with reference compounds (e.g., α-methyl-5-HT. Compounds were tested at the following nanomolar concentrations, in duplicate: 0.3 nM, 1 nM, 3 nM, 10 nM, 30 nM, 100 nM, 300 nM, 1,000 nM, 3,000 nM, and 10,000 nM

human 5-HT7 receptor = target: T3, human 5-HT7 receptor (Homo sapiens, UniProt P34969); test: 5HT7 Antagonism Assay (Euroscreen FAST-0499C), cAMP HTRF; settings: CHO-K1 cells expressing human 5-HT7, reference agonist at EC80, cAMP HTRF
T3 construct: host or cells: CHO-K1
Procedure: 5HT7 Antagonism Assay Protocol (Euroscreen FAST-0499C)
CHO-K1 cells expressing the human 5-HT7 receptor, grown prior to the test in media without antibiotic, were detached by gentle flushing with PBS-EDTA (5 mM EDTA), recovered by centrifugation and resuspended in assay buffer (Krebs-Ringer HEPES buffer: 5 mM KCl, 1.25 mM MgSO4, 124 mM NaCl, 25 mM HEPES, 13.3 mM Glucose, 1.25 mM KH2PO4, 1.45 mM CaCl2), 0.5 g/l BSA, supplemented with 1 mM IBMX).
Dose response curves were performed in parallel with reference compounds (e.g., 5-carboxamidotryptamine (5-CT)).
For antagonist testing in a 384 well plate: 5 μl of cells (3000 cells) were mixed with 5 μl of a mix of test compound and reference agonist (for a final assay concentration corresponding to its EC80) diluted in assay buffer. The plates were then incubated for about 30 minutes at about room temperature. After addition of the lysis buffer containing cAMP-d2 and anti-cAMP cryptate detection reagents, plates were incubated for about 1 hour at about room temperature, and fluorescence ratios were measured according to the manufacturer's specifications (HTRF kit: cAMP Gs dynamic kit, Cisbio Bioassays, 62AM4PEJ).
as §1

[1] = 5-HT2A (IC50), CHO-K1 cells expressing human 5-HT2A, reference agonist at EC80, IP-One
[2] = read-out: 5-HT2A (IC50), CHO-K1 cells expressing human 5-HT2A, reference agonist at EC80, IP-One
[3] = CHO-K1 cells expressing human 5-HT2A, reference agonist at EC80, IP-One, read-out: 5-HT2A (IC50)

T3 sequence (P34969 whole entry): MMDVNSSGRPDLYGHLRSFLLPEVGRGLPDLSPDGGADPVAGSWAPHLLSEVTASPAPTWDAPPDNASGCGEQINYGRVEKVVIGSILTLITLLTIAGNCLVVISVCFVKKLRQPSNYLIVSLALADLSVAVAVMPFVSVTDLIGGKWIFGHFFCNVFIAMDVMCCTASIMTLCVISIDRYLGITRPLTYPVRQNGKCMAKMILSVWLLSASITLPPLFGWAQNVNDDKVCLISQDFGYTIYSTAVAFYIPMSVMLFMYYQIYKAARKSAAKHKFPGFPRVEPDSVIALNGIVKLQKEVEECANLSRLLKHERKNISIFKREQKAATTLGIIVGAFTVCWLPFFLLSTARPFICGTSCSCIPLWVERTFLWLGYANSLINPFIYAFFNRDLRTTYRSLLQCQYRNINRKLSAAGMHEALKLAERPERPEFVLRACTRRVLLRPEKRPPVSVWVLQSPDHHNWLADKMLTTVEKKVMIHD
T2 sequence (P28223 whole entry): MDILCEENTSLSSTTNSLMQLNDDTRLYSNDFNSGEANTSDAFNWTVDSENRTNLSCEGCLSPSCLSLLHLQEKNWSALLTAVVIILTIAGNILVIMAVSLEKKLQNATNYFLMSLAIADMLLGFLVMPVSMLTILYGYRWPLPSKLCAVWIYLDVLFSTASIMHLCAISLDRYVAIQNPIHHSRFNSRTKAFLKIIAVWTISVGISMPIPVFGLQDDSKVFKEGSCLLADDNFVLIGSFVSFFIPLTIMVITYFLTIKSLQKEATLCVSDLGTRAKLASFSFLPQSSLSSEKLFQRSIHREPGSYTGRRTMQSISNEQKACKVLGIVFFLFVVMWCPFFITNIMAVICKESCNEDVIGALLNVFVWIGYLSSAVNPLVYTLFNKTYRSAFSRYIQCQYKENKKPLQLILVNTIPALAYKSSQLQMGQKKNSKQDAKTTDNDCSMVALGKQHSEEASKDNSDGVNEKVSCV

| Structure (SMILES) | EC50 (human TAAR1 receptors) [µM] | IC50 (human 5-HT2A receptor; [1]) [µM] | IC50 (human 5-HT7 receptor) [µM] | IC50 (human 5-HT2A receptor; [2]) [µM] | IC50 (human 5-HT2A receptor; [3]) [µM] |
| --- | --- | --- | --- | --- | --- |
| NCC1Oc2ccc(F)cc2Oc2ccccc21 (single isomer, unassigned) [Compound 41, (R*)-(7-fluoro-11H-dibenzo[b,e][1,4]dioxepin-11-yl)methanamine] | < 1 | < 1 | 1 to 10 |  |  |
| NCC1Oc2ccc(F)cc2Oc2ccccc21 (single isomer, unassigned) [Compound 42, (S*)-(7-fluoro-11H-dibenzo[b,e][1,4]dioxepin-11-yl)methanamine] | < 1 |  | ≥ 10 | < 1 |  |
| CNCC1Oc2ccc(F)cc2Oc2ccccc21 (single isomer, unassigned) [Compound 43, (R*)-1-(7-fluoro-11H-dibenzo[b,e][1,4]dioxepin-11-yl)-N-methylmethanamine] | < 1 | < 1 | < 1 |  |  |
| CNCC1Oc2ccc(F)cc2Oc2ccccc21 (single isomer, unassigned) [Compound 44, (S*)-1-(7-fluoro-11H-dibenzo[b,e][1,4]dioxepin-11-yl)-N-methylmethanamine] | < 1 |  | < 1 | < 1 |  |
| CNCC1Oc2ccccc2Oc2ncccc21 (single isomer, unassigned) [Compound 45, (R*)-1-(5H-benzo[2,3][1,4]dioxepino[5,6-b]pyridin-5-yl)-N-methylmethanamine] | > 10 |  | ≥ 10 |  | 1 to 10 |
| CNCC1Oc2ccccc2Oc2ncccc21 (single isomer, unassigned) [Compound 46, (S*)-1-(5H-benzo[2,3][1,4]dioxepino[5,6-b]pyridin-5-yl)-N-methylmethanamine] | 1 to 10 |  | ≥ 10 |  | 1 to 10 |
| NCC1Oc2ccccc2Oc2ncccc21 (single isomer, unassigned) [Compound 47, (R*)-(5H-benzo[2,3][1,4]dioxepino[5,6-b]pyridin-5-yl)methanamine] | 1 to 10 |  | ≥ 10 |  | > 10 |
| NCC1Oc2ccccc2Oc2ncccc21 (single isomer, unassigned) [Compound 48, (S*)-(5H-benzo[2,3][1,4]dioxepino[5,6-b]pyridin-5-yl)methanamine] | 1 to 10 |  | ≥ 10 |  | > 10 |
| NCC1Oc2ccccc2Oc2cnccc21 (single isomer, unassigned) [Compound 49, (R*)-(5H-benzo[2,3][1,4]dioxepino[5,6-c]pyridin-5-yl)methanamine] | 1 to 10 | > 10 | ≥ 10 |  |  |
| NCC1Oc2ccccc2Oc2cnccc21 (single isomer, unassigned) [Compound 50, (S*)-(5H-benzo[2,3][1,4]dioxepino[5,6-c]pyridin-5-yl)methanamine] | < 1 |  | ≥ 10 | > 10 |  |
| CNCC1Oc2ccccc2Oc2cnccc21 (single isomer, unassigned) [Compound 51, (R*)-1-(5H-benzo[2,3][1,4]dioxepino[5,6-c]pyridin-5-yl)-N-methylmethanamine] | 1 to 10 |  | ≥ 10 |  | 1 to 10 |
| CNCC1Oc2ccccc2Oc2cnccc21 (single isomer, unassigned) [Compound 52, (S*)-1-(5H-benzo[2,3][1,4]dioxepino[5,6-c]pyridin-5-yl)-N-methylmethanamine] | > 10 |  | ≥ 10 |  | 1 to 10 |
| NCC1Oc2ccccc2Oc2ccncc21 (single isomer, unassigned) [Compound 53, (R*)-(11H-benzo[2,3][1,4]dioxepino[6,5-c]pyridin-11-yl)methanamine] | 1 to 10 |  | ≥ 10 |  | > 10 |
| NCC1Oc2ccccc2Oc2ccncc21 (single isomer, unassigned) [Compound 54, (S*)-(11H-benzo[2,3][1,4]dioxepino[6,5-c]pyridin-11-yl)methanamine] | 1 to 10 |  | ≥ 10 |  | > 10 |
| CNC[C@@H]1Oc2ccccc2Oc2ccncc21 (single isomer, unassigned) [Compound 55, (R*)-1-(11H-benzo[2,3][1,4]dioxepino[6,5-c]pyridin-11-yl)-N-methylmethanamine] | > 10 |  | ≥ 10 |  | > 10 |
| CNC[C@H]1Oc2ccccc2Oc2ccncc21 (single isomer, unassigned) [Compound 56, (S*)-1-(11H-benzo[2,3][1,4]dioxepino[6,5-c]pyridin-11-yl)-N-methylmethanamine] | > 10 |  | ≥ 10 |  | > 10 |
| CNCC1Oc2ccccc2Oc2cccnc21 (single isomer, unassigned) [Compound 57, (S*)-1-(11H-benzo[2,3][1,4]dioxepino[6,5-b]pyridin-11-yl)-N-methylmethanamine] | < 1 | 1 to 10 | ≥ 10 |  |  |
| CNCC1Oc2ccccc2Oc2cccnc21 (single isomer, unassigned) [Compound 58, (R*)-1-(11H-benzo[2,3][1,4]dioxepino[6,5-b]pyridin-11-yl)-N-methylmethanamine] | < 1 |  | 1 to 10 | 1 to 10 |  |
| NCC1Oc2ccccc2Oc2cccnc21 (single isomer, unassigned) [Compound 59, (S*)-(11H-benzo[2,3][1,4]dioxepino[6,5-b]pyridin-11-yl)methanamine] | < 1 | > 10 | ≥ 10 |  |  |
| NCC1Oc2ccccc2Oc2cccnc21 (single isomer, unassigned) [Compound 60, (R*)-(11H-benzo[2,3][1,4]dioxepino[6,5-b]pyridin-11-yl)methanamine] | < 1 |  | ≥ 10 | > 10 |  |
| NCC1Cc2c(F)cccc2Oc2ccccc21 (single isomer, unassigned) [Compound 80, (R*)-(1-fluoro-10,11-dihydrodibenzo[b,f]oxepin-10-yl)methanamine] | < 1 | < 1 | ≥ 10 |  |  |
| NCC1Cc2c(F)cccc2Oc2ccccc21 (single isomer, unassigned) [Compound 81, (S*)-(1-fluoro-10,11-dihydrodibenzo[b,f]oxepin-10-yl)methanamine] | < 1 |  | ≥ 10 | < 1 |  |
| CNCC1Cc2c(F)cccc2Oc2ccccc21 (single isomer, unassigned) [Compound 82, (R*)-1-(1-fluoro-10,11-dihydrodibenzo[b,f]oxepin-10-yl)-N-methylmethanamine] | < 1 | < 1 | 1 to 10 |  |  |
| CNCC1Cc2c(F)cccc2Oc2ccccc21 (single isomer, unassigned) [Compound 83, (S*)-1-(1-fluoro-10,11-dihydrodibenzo[b,f]oxepin-10-yl)-N-methylmethanamine] | > 10 |  | 1 to 10 | < 1 |  |
